Usually IC50 stands for the concentration that inhibits the measured activity by half.

The test system of the first test is HCV subgenomic replication. Briefly: Cell based HCV replication assay (subgenomic replicon in Huh-7 cells, NS3 Cell-ELISA). Particulars: Hepatitis C virus, Huh-7; Table 5, various macrocycles; activity ranges; read-out: IC50* (nM), Inhibition of HCV subgenomic replication. From the text:
Cell clones that stably maintain subgenomic HCV replicon were obtained by transfecting Huh-7 cells with an RNA replicon identical to I377neo/NS3-3′/wt described by Lohmann et al. (1999) (EMBL-genbank No. AJ242652), followed by selection with neomycin sulfate (G418). Viral replication was monitored by measuring the expression of the NS3 protein by an ELISA assay performed directly on cells grown in 96 wells microtiter plates (Cell-ELISA) using the anti-NS3 monoclonal antibody 10E5/24 (as described in published International application WO 02/59321). Cells were seeded into 96 well plates at a density of 10^4 cells per well in a final volume of 0.1 ml of DMEM/10% FCS. Two hours after plating, 50 μl of DMEM/10% FCS containing a 3× concentration of inhibitor were added, cells were incubated for 96 hours and then fixed for 10 minutes with ice-cold isopropanol. Each condition was tested in duplicate and average absorbance values were used for calculations. The cells were washed twice with PBS, blocked with 5% non-fat dry milk in PBS+0.1% Triton X100+0.02% SDS (PBSTS) and then incubated o/n at 4° C. with the 10E5/24 mab diluted in Milk/PBSTS. After washing 5 times with PBSTS, the cells were incubated for 3 hours at room temperature with Fc specific anti-mouse IgG conjugated to alkaline phosphatase (Sigma), diluted in Milk/PBSTS. After washing again as above, the reaction was developed with p-Nitrophenyl phosphate disodium substrate (Sigma) and the absorbance at 405/620 nm read at intervals. For calculations, we used data sets where samples incubated without inhibitors had absorbance values comprised between 1 and 1.5. The inhibitor concentration that reduced by 50% the expression of NS3 (IC50) was calculated by fitting the data to the Hill equation, Fraction inhibition=1−(Ai−b)/(A0−b)=[I]^n/([I]^n+[…]) where: • Ai=absorbance value of HBI10 cells supplemented with the indicated inhibitor concentration. • A0=absorbance value of HBI10 cells incubated without inhibitor. • b=absorbance value of Huh-7 cells plated at the same density in the same microtiter plates and incubated without inhibitor. • n=Hill coefficient.
For orientation: A replicon is a self-replicating genome or part of one, used to study replication in cells.
For `CN1CCC2COc3ccccc3-c3c([C@H]4CCCC[C@@H]4F)c4ccc(cc4n3C2)C(=O)NS(=O)(=O)N2CCC1CC2` (single isomer, unassigned) [Example 502, 30-[(1R,2S) or (1S,2R)-2-fluorocyclohexyl]-23-methyl-18-oxa-2-thia-1,3,10,23-tetraazahexacyclo[22.2.2.1^5,9.1^8,11.1^10,20.0^12,17]hentriaconta-5(31),6,8,11(30),12,14,16-heptaen-4-one 2,2-dioxide], the IC50 is 25 to 150 nM.

Still in this test, the particulars now being: Table 2, various macrocycles; activity ranges; read-out: IC50* (nM), Inhibition of HCV subgenomic replication.
As to `CCN1CCN(Cc2cccnc2)C2COc3ccc(F)cc3-c3c(C4CCCCC4)c4ccc(cc4n3C2)C(=O)NS(=O)(=O)N(C)CC1` [Example 206, (7R)-14-cyclohexyl-21-ethyl-2-fluoro-18-methyl-24-(pyridin-3-ylmethyl)-7,8-dihydro-6H-7,11-(epiminoethanoiminoethanoiminothioiminomethano)-indolo[1,2-e][1,5]benzoxazocin-15-one 17,17-dioxide], the IC50 was < 25 nM. On the same count and under the same terms, in the case of `CCN1CCN(CCO)[C@H]2COc3cc(C)ccc3-c3c(C4CCCCC4)c4ccc(cc4n3C2)C(=O)NS(=O)(=O)N(C)CC1` [Example 214, (7R)-14-cyclohexyl-21-ethyl-24-(2-hydroxyethyl)-3,18-dimethyl-7,8-dihydro-6H-7,11-(epiminoethanoiminoethanoiminothioiminomethano)-indolo[1,2-e][1,5]benzoxazocin-15-one 17,17-dioxide] it was < 25 nM.

`CN(C)CCN1CCN(C)C2COc3ccccc3-c3c(C4CCCCC4)c4ccc(cc4n3C2)C(=O)NS(=O)(=O)N(C)CC1` [Example 220, (7R)-14-cyclohexyl-21-[2-(dimethylamino)ethyl]-18,24-dimethyl-7,8-dihydro-6H-7,11-(epiminoethanoiminoethanoiminothioiminomethano)-indolo[1,2-e][1,5]benzoxazocin-15-one 17,17-dioxide]: the IC50 was < 25 nM. Still for that read-out and setting: in the case of `CCN1CCN(C)C2COc3ccc(F)cc3-c3c(C4CCCCC4)c4ccc(cc4n3C2)C(=O)NS(=O)(=O)N(C)CC1` [Example 205, (7R)-14-cyclohexyl-21-ethyl-2-fluoro-18,24-dimethyl-7,8-dihydro-6H-7,11-(epiminoethanoiminoethanoiminothioiminomethano)-indolo[1,2-e][1,5]benzoxazocin-15-one 17,17-dioxide] it was < 25 nM; in that of `CN1CCN(Cc2ccccc2)CCN(C)S(=O)(=O)NC(=O)c2ccc3c(C4CCCCC4)c4n(c3c2)CC1Cc1ccccc1-4` (stereo not shown) [Example 201, 20-benzyl-13-cyclohexyl-17,23-dimethyl-6,7-dihydro-5H-6,10-(epiminoethanoiminoethanoiminothioiminomethano)-indolo[2,1-a][2]benzazepin-14-one 16,16-dioxide], > 500 nM; in that of `Cc1ccc2c(c1)OCC1Cn3c-2c(C2CCCCC2)c2ccc(cc23)C(=O)NS(=O)(=O)N(C)CCN(C)CCN1C` [Example 216, (7R)-14-cyclohexyl-3,18,21,24-tetramethyl-7,8-dihydro-6H-7,11-(epiminoethanoiminoethanoiminothioiminomethano)-indolo[1,2-e][1,5]benzoxazocin-15-one 17,17-dioxide], < 25 nM.

Staying with this test, now noted: Table 4, various macrocycles; activity ranges; read-out: IC50* (nM), Inhibition of HCV subgenomic replication.
Take `COc1cccc2c1OCC1Cn3c-2c(C2CCCCC2)c2ccc(cc23)C(=O)NS(=O)(=O)N(C)CCN(C)CCN1C` [Example 412, (7R)-14-cyclohexyl-4-methoxy-18,21,24-trimethyl-7,8-dihydro-6H-7,11-(epiminoethanoiminoethanoiminothioiminomethano)-indolo[1,2-e][1,5]benzoxazocin-15-one 17,17-dioxide]: the IC50 was < 25 nM. On the same count and under the same terms, in the case of `CCN1CCN(C)C2COc3c(F)cccc3-c3c(C4CCCCC4)c4ccc(cc4n3C2)C(=O)NS(=O)(=O)N(C)CC1` [Example 404, (7R)-14-cyclohexyl-21-ethyl-4-fluoro-18,24-dimethyl-7,8-dihydro-6H-7,11-(epiminoethanoiminoethanoiminothioiminomethano)-indolo[1,2-e][1,5]benzoxazocin-15-one 17,17-dioxide] it was < 25 nM; in that of `CN1CCN(C)[C@H]2COc3c(CC4CC4)cccc3-c3c(C4CCCCC4)c4ccc(cc4n3C2)C(=O)NS(=O)(=O)N(C)CC1` [Example 407, (7R)-14-cyclohexyl-4-(cyclopropylmethyl)-18,21,24-trimethyl-7,8-dihydro-6H-7,11-(epiminoethanoiminoethanoiminothioiminomethano)-indolo[1,2-e][1,5]benzoxazocin-15-one 17,17-dioxide], < 25 nM.

The test is the same for the next values; noted with them: Table 5, various macrocycles; activity ranges; read-out: IC50* (nM), Inhibition of HCV subgenomic replication.
Turning to `CC(C)N1CCCC2COc3ccccc3-c3c(C4CCCCC4)c4ccc(cc4n3C2)C(=O)NS(=O)(=O)N(C)CC1` (stereo not shown) [Example 509, 14-cyclohexyl-21-isopropyl-18-methyl-7,8-dihydro-6H-7,11-(propanoiminoethanoiminothioiminomethano)indolo[1,2-e][1,5]benzoxazocin-15-one 17,17-dioxide], the IC50 is < 25 nM.

With `Cc1cccc2c1OCC1CCN(C)CCCN(C)S(=O)(=O)NC(=O)c3ccc4c(C5CCCCC5)c-2n(c4c3)C1` [Example 521, (7R)-14-cyclohexyl-4,18,22-trimethyl-7,8-dihydro-6H-7,11-(ethanoiminopropanoiminothioiminomethano)indolo[1,2-e][1,5]benzoxazocin-15-one 17,17-dioxide], the IC50 is < 25 nM. Still for that read-out and setting: in the case of `COc1ccc2c(c1)OCC1CCN(C)CC(F)(F)CN(C)S(=O)(=O)NC(=O)c3ccc4c(C5CCCCC5)c-2n(c4c3)C1` [Example 524, (7R)-14-cyclohexyl-20,20-difluoro-3-methoxy-18,22-dimethyl-7,8-dihydro-6H-7,11-(ethanoiminopropanoiminothioiminomethano)indolo[1,2-e][1,5]benzoxazocin-15-one 17,17-dioxide] it was 150 to 500 nM.

Still in this test, the particulars now being: Table A; activity ranges; Huh-7 replicon cells, 96 hours; read-out: IC50 (nM), Inhibition of HCV subgenomic replication.
Regarding `COc1ccc2c(c1)OCC1CCN(C)CCCN(C)S(=O)(=O)NC(=O)c3ccc4c(C5CCCCC5)c-2n(c4c3)C1` (single isomer, unassigned; (-)) [Compound A35, (−)-14-cyclohexyl-3-methoxy-18,22-dimethyl-7,8-dihydro-6H-7,11-(ethanoiminopropanoiminothioiminomethano)indolo[1,2-e][1,5]benzoxazocin-15-one 17,17-dioxide], the IC50 is < 25 nM.

In the case of `CN1CCCC2COc3ccccc3-c3c(C4CCCCC4)c4ccc(cc4n3C2)C(=O)NS(=O)(=O)N(C)CC1` [Compound A25, (7R)-14-cyclohexyl-18,21-dimethyl-7,8-dihydro-6H-7,11-(propanoiminoethanoiminothioiminomethano)indolo[1,2-e][1,5]benzoxazocin-15-one 17,17-dioxide], the IC50 is < 25 nM. Still for that read-out and setting: in the case of `CN1CCOC2COc3ccccc3-c3c(C4CCCCC4)c4ccc(cc4n3C2)C(=O)NS(=O)(=O)N(C)CC1` [Compound A7, (7S)-14-cyclohexyl-18,21-dimethyl-7,8-dihydro-6H-7,11-(epoxyethanoiminoethanoiminothioiminomethano)indolo[1,2-e][1,5]benzoxazocin-15-one 17,17-dioxide] it was 25 to 150 nM; in that of `CN1CCCC2COc3ccccc3-c3c(C4CCCCC4F)c4ccc(cc4n3C2)C(=O)NS(=O)(=O)N(C)CC1` (single isomer, unassigned) [Compound A40, (7R)-14-[(1R,2S) or (1S,2R)-2-fluorocyclohexyl]-18,21-dimethyl-7,8-dihydro-6H-7,11-(propanoiminoethanoiminothioiminomethano)indolo[1,2-e][1,5]benzoxazocin-15-one 17,17-dioxide], < 25 nM; in that of `CCCc1cccc2c1OC[C@H]1Cn3c-2c(C2CCCCC2)c2ccc(cc23)C(=O)NS(=O)(=O)N(C)CCN(CC)CCN1C` [Compound A22, (7R)-14-cyclohexyl-21-ethyl-18,24-dimethyl-4-propyl-7,8-dihydro-6H-7,11-(epiminoethanoiminoethanoiminothioiminomethano)indolo[1,2-e][1,5]benzoxazocin-15-one 17,17-dioxide], 25 to 150 nM. Turning to `CCN1CCN(CCN(C)C)C2COc3cc(F)ccc3-c3c(C4CCCCC4)c4ccc(cc4n3C2)C(=O)NS(=O)(=O)N(C)CC1` [Compound A12, (7R)-14-cyclohexyl-24-[2-(dimethylamino)ethyl]-21-ethyl-3-fluoro-18-methyl-7,8-dihydro-6H-7,11-(epiminoethanoiminoethanoiminothioiminomethano)-indolo[1,2-e][1,5]benzoxazocin-15-one 17,17-dioxide], the IC50 is < 25 nM.

Source of the values: patent US7989438B2, “Therapeutic compounds” (Istituto di Ricerche di Biologia Molecolare P. Angeletti SpA, priority 2007, dated 2011).
